Results: BigSolDB 2.1

CC(=O)c1cccc([N+](=O)[O-])c1
solubility (mole fraction)
Conditions	in acetone	in acetonitrile	in cyclohexane	in ethanol	in ethyl acetate	in isopropanol	in methanol	in n-propanol	in toluene
278.15 K	0.1	0.0717	–	0.00487	0.0782	0.00433	0.00642	0.00388	0.0545
283.15 K	0.121	0.0892	0.00124	0.00619	0.0906	0.00517	0.00759	0.00487	0.0657
288.15 K	0.146	0.116	0.00159	0.00785	0.109	0.00635	0.00928	0.00609	0.082
293.15 K	0.179	0.147	0.00204	0.00993	0.132	0.00778	0.0117	0.00763	0.103
298.15 K	0.218	0.185	0.0026	0.0125	0.159	0.00944	0.0146	0.00975	0.128
303.15 K	0.264	0.233	0.00333	0.0158	0.191	0.0117	0.0183	0.0124	0.161
308.15 K	0.319	0.292	0.0043	0.0204	0.23	0.0145	0.0231	0.0157	0.2
313.15 K	0.384	0.367	0.0056	0.0262	0.277	0.018	0.0299	0.0204	0.254
318.15 K	0.458	0.454	0.00743	0.0355	0.341	0.023	0.0389	0.0265	0.328

CC(=O)c1ccc([N+](=O)[O-])cc1
solubility (mole fraction)
Conditions	in acetone	in acetonitrile	in cyclohexane	in ethanol	in ethyl acetate	in isopropanol	in methanol	in n-propanol	in toluene
278.15 K	0.134	0.103	–	0.00667	0.101	0.00349	0.00839	0.00481	0.0674
283.15 K	0.158	0.123	0.00154	0.00821	0.117	0.00455	0.0102	0.00608	0.0806
288.15 K	0.185	0.146	0.00203	0.01	0.137	0.00577	0.0125	0.00762	0.0959
293.15 K	0.216	0.174	0.00259	0.0123	0.161	0.00758	0.0155	0.00968	0.114
298.15 K	0.25	0.206	0.00332	0.0155	0.188	0.00978	0.0187	0.0121	0.137
303.15 K	0.287	0.244	0.00423	0.019	0.22	0.0128	0.0231	0.0154	0.164
308.15 K	0.33	0.287	0.00542	0.0236	0.257	0.0169	0.0283	0.0194	0.195
313.15 K	0.376	0.336	0.00694	0.0293	0.3	0.0223	0.0343	0.0246	0.232
318.15 K	0.428	0.389	0.0089	0.0365	0.345	0.0296	0.0421	0.0313	0.275
